The target of data set [1] is T1, human A1 adenosine receptor (hA1R) (Homo sapiens, UniProt P30542).
T1 sequence (P30542 1-326): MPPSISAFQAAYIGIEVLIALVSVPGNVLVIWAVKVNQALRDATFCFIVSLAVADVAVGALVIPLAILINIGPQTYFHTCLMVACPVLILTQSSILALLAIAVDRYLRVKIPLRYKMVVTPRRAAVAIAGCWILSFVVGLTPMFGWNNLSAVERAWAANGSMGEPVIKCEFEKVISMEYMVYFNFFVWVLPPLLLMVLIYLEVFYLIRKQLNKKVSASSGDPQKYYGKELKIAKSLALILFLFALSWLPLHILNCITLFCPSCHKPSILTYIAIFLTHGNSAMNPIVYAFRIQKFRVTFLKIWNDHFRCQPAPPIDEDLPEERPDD
Kind of data set: cAMP inhibition assay, allosteric mode with adenosine as orthosteric agonist, CHO-K1-hA1R cells; operational allosteric ternary complex model. Format: cell-based. The arrangement: host or cells: CHO-K1. The following applies: for Allosteric modulation of adenosine-induced cAMP inhibition (shift of concentration-response curve): test compound at 20 µM; for Logαβ (binding and activation cooperativity) / αβ / τB / Kb / Kd / LogτB (operational efficacy as allosteric agonist): orthosteric agonist adenosine; for αβ / τB: antilogarithm; for Kb: antilogarithm of logKB; for Kd: operational model fit, read-out: logKB (converted).

Data set [2] concerns the target T1, human A1 adenosine receptor (hA1R). The data set is described as follows: cAMP inhibition assay, direct agonist mode, in CHO-K1-hA1R cells (Cisbio cAMP Gi kit, forskolin co-stimulation). Particulars: 0.01 to 50 µM.
The target in data set [3] is T2, human A1 receptor (Homo sapiens, UniProt P30542).
T2 construct: host or cells: CHO-K1
T2 sequence (P30542 1-326): T1 sequence (P30542 1-326)
Kind of data set: cAMP inhibition assay, allosteric mode with CPA as orthosteric agonist (DiscoverX HitHunter cAMP XS+), CHO-K1 cells overexpressing the human A1 receptor; operational allosteric ternary complex model. Particulars: for αβ / τB: antilogarithm; for Kb: antilogarithm of logKB; for Kd: operational model fit, read-out: logKB (converted). Type of data set: cell-based. How it is done:
Experiments with CPA as an agonist: In experiments with CPA as an agonist, inhibition of intracellular cAMP production in response to CPA stimulation of the receptor was determined using a functional assay in CHO-K1 cells overexpressing the human A1 receptor (Eurofins DiscoverX Corporation, Fremont, CA, USA). Cells were seeded in a total volume of 20 μL into white-walled, 384-well microplates and incubated at 37 °C for the appropriate time prior to testing.
Experiments with CPA as an agonist: cAMP production was measured using the DiscoverX HitHunter cAMP XS+ assay (Eurofins DiscoverX Corporation, Fremont, CA, USA). For allosteric modulation studies, cells were pre-incubated with allosteric modulators at various concentrations, followed by induction with the agonist CPA at its EC20 concentration (i.e., the concentration eliciting 20% of the maximal response). Media were aspirated from cells and replaced with 10 μL of HBSS (10 mM HEPES). Sample stocks were diluted to prepare a 4-fold higher (4x) concentration than the final in-well concentration. Next, 5 μL of the 4x compound was added to the cells and incubated at room temperature or 37 °C for 10 min. This was followed by the addition of 5 μL of the 4x EC20 agonist solution and further incubation for 30 min at 37 °C. To stimulate intracellular cAMP production and provide a dynamic range for detecting Gi-mediated inhibition, forskolin at its EC80 was included in all experiments. The final DMSO (vehicle) concentration was 1%. After incubation with compounds, the assay signal was generated by adding 5 uL of and cAMP XS+ Ab reagent followed by 20 μL of the cAMP XS+ ED/CL lysis cocktail and then incubating for 1 h. This was followed by adding 20 μL of the cAMP XS+ EA reagent and incubating for 2 h at room temperature. Chemiluminescent signals were detected using a PerkinElmer EnVision™ instrument. Compound activity was analyzed using the CBIS data analysis suite (ChemInnovation, San Diego, CA, USA). Control dose–response curves were generated using CPA as the agonist. Data were normalized to the maximal response observed with CPA (positive control) and the minimal response observed with vehicle (1% DMSO, negative control).
The operational allosteric ternary complex model (ATCM) accounts for the ability of an allosteric ligand to modify affinity and/or efficacy and even activate a receptor independently. This model describes a simplified case for positive allosteric modulators (PAMs), where the orthosteric ligand is a full agonist.
Explanation of parameters: A = Agonist concentration; B = Allosteric modulator concentration; KB = Dissociation constant for the modulator; αβ = Allosteric coupling constant; τB = Intrinsic activity of the modulator; EC50 = Half-maximal effective concentration of the agonist; n = Hill coefficient; Emax = Maximal system response; Basal = Basal activity (response in the absence of any ligand); Span = Emax − Basal (difference between maximum and basal activity).
The response curve Y is defined as follows: Y=Basal+Span·(Part1)/(Part1+Part2) where Part1=A·KB+αβ·B+τB·B·EC50^n Part2=(EC50^n·(KB+B))^n Span=Emax−Basal

For data set [4], the system named is rat A1 receptors. Also on record: method as in PMID 30644086. Particulars: 1, 10 and 30 µM, rat A1 receptors in HEK293T cells; cited from earlier work.
Data set [5] deals with human A1 receptors. The arrangement: method as in PMID 30644086. The following applies: 1, 10 and 30 µM, human A1 receptors in HEK293T cells; cited from earlier work.
Details of data set [6]: method as in PMID 16220575. Particulars: human, oral 600 mg valerian extract; cited from earlier work.
For data set [7], the system named is ECV304 human cell line. Also on record: method as in PMID 18704879. Particulars: ECV304 in vitro BBB model; cited from earlier work.
Details of data set [8]: method as in PMID 19156843. Particulars: isolated perfused rat livers; cited from earlier work.
Details of data set [9]: method as in PMID 22411722. Particulars: rats; cited from earlier work.

Here are results for 15 molecules from article PMC12155840 (Molecules, 2025).

In the case of `COc1cc([C@H]2OC[C@]3(O)[C@@H](c4ccc(O)c(OC)c4)OC[C@H]23)ccc1O` [8-Hydroxypinoresinol, 8-Hydroxy-pinoresinol], the “Allosteric modulation of adenosine-induced cAMP inhibition (shift of concentration-response curve)” value in data set [1] is “no significant shift”.

`O=C(/C=C/c1ccc(O)c(O)c1)O[C@@H]1C[C@](O)(C(=O)O)C[C@@H](O)[C@H]1O` [Chlorogenic acid, chlorogenic acid]: in data set [1], the “Allosteric modulation of adenosine-induced cAMP inhibition (shift of concentration-response curve)” value was “no significant shift”.

For `O=C(O)/C=C/c1ccc(O)cc1` [Coumaric acid, coumaric acid], in [1], the “Allosteric modulation of adenosine-induced cAMP inhibition (shift of concentration-response curve)” value is “no significant shift”.

For the molecule `COc1cc(/C=C/C(=O)O)ccc1O` [Ferulic acid, trans-ferulic acid], the “Allosteric modulation of adenosine-induced cAMP inhibition (shift of concentration-response curve)” value in [1] is listed as “no significant shift”.

Consider `COc1ccc([C@@H]2CC(=O)c3c(O)cc(O[C@@H]4O[C@H](CO[C@@H]5O[C@@H](C)[C@H](O)[C@@H](O)[C@H]5O)[C@@H](O)[C@H](O)[C@H]4O)cc3O2)cc1O` [Hesperidin], for which the “Allosteric modulation of adenosine-induced cAMP inhibition (shift of concentration-response curve)” value in [1] is listed as “slight leftward shift in the dose-response curve”.

For `COc1ccc(/C=C/C(=O)O)cc1O` [Isoferulic acid, trans-isoferulic acid], the “Allosteric modulation of adenosine-induced cAMP inhibition (shift of concentration-response curve)” value in data set [1] is on record as “no significant shift”.

For the molecule `COc1cc(C[C@]2(O)CO[C@@H](c3ccc(O)c(OC)c3)[C@@H]2CO)ccc1O` [Olivil, (−)-olivil], the “Allosteric modulation of adenosine-induced cAMP inhibition (shift of concentration-response curve)” value in [1] is on record as “no significant shift”.

On to `COc1cc([C@H]2OC[C@](O)(Cc3ccc(O[C@@H]4O[C@H](CO)[C@@H](O)[C@H](O)[C@H]4O)c(OC)c3)[C@@H]2CO)ccc1O` [Olivil-4-O-glucoside, (−)-olivil 4′-O-glucoside], for which the “Allosteric modulation of adenosine-induced cAMP inhibition (shift of concentration-response curve)” value in data set [1] was “no significant shift”.

With `COc1cc([C@H]2OC[C@H]3[C@@H]2CO[C@@H]3c2ccc(O[C@@H]3O[C@H](CO)[C@@H](O)[C@H](O)[C@H]3O)c(OC)c2)ccc1O[C@@H]1O[C@H](CO)[C@@H](O)[C@H](O)[C@H]1O` [Pinoresinol diglucoside, pinoresinol-diglucoside], the “Allosteric modulation of adenosine-induced cAMP inhibition (shift of concentration-response curve)” value in [1] is listed as “no significant shift”.

For `COc1cc([C@H]2OC[C@H]3[C@@H]2CO[C@@H]3c2ccc(O)c(OC)c2)ccc1O` [Pinoresinol, (+)-pinoresinol], in [1], the “Logαβ (binding and activation cooperativity)” value (from here on “Logαβ”) worked out at 0.53; the αβ amounted to 3.42; the τB is 0.93; the Kb is 25.8 µM. In addition, the Kd in data set [1] is 26.3 µM. The “Intrinsic agonist activity: effect on forskolin-stimulated cAMP levels in the absence of adenosine” value in data set [2] is reported as “no significant reduction in cAMP levels”. In data set [3], the “Logαβ” value is −0.1; the “LogτB (operational efficacy as allosteric agonist)” value (“LogτB” below) is recorded as 0.22; the αβ is 0.79; the τB amounted to 1.66. Further, in data set [3], the Kb amounted to 316 µM and the Kd was 316 µM.

`COc1cc([C@H]2OC[C@H]3[C@@H]2CO[C@@H]3c2ccc(O[C@@H]3O[C@H](CO)[C@@H](O)[C@H](O)[C@H]3O)c(OC)c2)ccc1O` [Pinoresinol-4-O-glucoside, pinoresinol-4-O-Glucoside]: in data set [1], the “Allosteric modulation of adenosine-induced cAMP inhibition (shift of concentration-response curve)” value is recorded as “no significant shift”.

In the case of `Nc1scc(-c2cccc(C(F)(F)F)c2)c1C(=O)c1ccccc1` [VCP 171, reference compound], in data set [4], the “effect on binding affinity of orthosteric agonists” value is given as “enhanced the binding affinity of orthosteric agonists”. Moreover, in data set [1], the “Logαβ” value was −0.43; the “LogτB” value amounted to 0.42; the αβ came to 0.37; the τB was 2.66. Besides, in [1], the Kb was found to be 9.38 µM and the Kd is 9.55 µM. In addition, the “effect on binding affinity of orthosteric agonists” value in [5] was “enhanced the binding affinity of orthosteric agonists”. In addition, in data set [3], the “Logαβ” value is listed as 1.11; the “LogτB” value amounted to 0.3; the αβ amounted to 12.73; the τB amounted to 1.99. Moreover, in data set [3], the Kb was found to be 10.8 µM and the Kd was 11 µM.

Take `CC1=C2[C@H](/C=C(\C)C(=O)O)CC[C@@H](C)[C@H]2CC1` [Valerenic Acid, Valerenic acid]: in data set [6], the half-life result is recorded as “approximately 1.1 h” and the “peak plasma concentration of valerenic acid (molar)” value is given as ~ 10 nM. Besides, the “permeation of the BBB model relative to diazepam” value in [7] is reported as “significantly slower than diazepam”. Besides, the hepatic metabolism entry in [8] is “undergoes extensive hepatic metabolism, primarily through glucuronidation”. Also, the oral bioavailability in [9] is reported as 33.7%. Besides, in data set [1], the “Logαβ” value is 0.68; the “LogτB” value is reported as 0.77; the αβ came to 4.79; the τB amounted to 5.98. The molecule also returned a Kb in [1] of 244 µM. For the same molecule, the “Intrinsic agonist activity: effect on forskolin-stimulated cAMP levels in the absence of adenosine” value in [2] is listed as “no significant reduction in cAMP levels”. Also, in [3], the “Logαβ” value was 1.36; the “LogτB” value came to 0.49; the αβ is recorded as 23.38; the τB is 3.14. Besides, the Kb in data set [3] was 17.4 µM.

With `CC(=O)O[C@@H]1CC(C)=C2[C@H]1[C@H](C)CC[C@H]2/C=C(\C)C(=O)O` [acetoxyvalerenic acid], in data set [7], the “permeation of the BBB model relative to diazepam” value was “significantly slower than diazepam”.

As for `CC1=C2[C@@H]([C@H](C)CC[C@H]2/C=C(\C)C(=O)O)[C@H](O)C1` [hydroxyvalerenic acid], the “permeation of the BBB model relative to diazepam” value in [7] is listed as “significantly slower than diazepam”.
